Test results reported in PubChem BioAssay (NCI).
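1) Cells in 96-well plates. 2) Compound, 48 h, 5 concentrations. 3) Linear interpolation between surrounding doses. 4) Unreached endpoint = highest concentration. TGI: total growth inhibition.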

What was measured:
Assay in all cases: growth of human tumour cells (NCI), 48 h
[1] = system: 786-0 renal
[2] = system: ACHN renal
[3] = system: EKVX NSCLC
[4] = system: HCC-2998 colon
[5] = system: HOP-62 NSCLC
[6] = system: HOP-92 NSCLC
[7] = system: HS 578T breast
[8] = system: KM12 colon
[9] = system: MCF7 breast
[10] = system: MDA-MB-231 breast
[11] = system: NCI-H522 lung
[12] = system: OVCAR-3 ovarian
[13] = system: OVCAR-8 ovarian
[14] = system: SF-295 CNS
[15] = system: SF-539 CNS
[16] = system: SK-MEL-2 melanoma
[17] = system: SK-OV-3 ovarian
[18] = system: SN12C renal
[19] = system: SW-620 colon
[20] = system: UACC-257 melanoma

| SMILES | TGI [1] [µM] | TGI [2] [µM] | TGI [3] [µM] | TGI [4] [µM] | TGI [5] [µM] | TGI [6] [µM] | TGI [7] [µM] | TGI [8] [µM] | TGI [9] [µM] | TGI [10] [µM] | TGI [11] [µM] | TGI [12] [µM] | TGI [13] [µM] | TGI [14] [µM] | TGI [15] [µM] | TGI [16] [µM] | TGI [17] [µM] | TGI [18] [µM] | TGI [19] [µM] | TGI [20] [µM] |
| --- | --- | --- | --- | --- | --- | --- | --- | --- | --- | --- | --- | --- | --- | --- | --- | --- | --- | --- | --- | --- |
| CC1OC(OC2C(CO)OC(O[C@H]3CC[C@@]4(C)C(=CC[C@H]5[C@@H]6C[C@@H]7O[C@](O)(CC[C@H](C)COC8OC(CO)C(O)C(O)C8O)[C@@H](C)[C@@H]7[C@@]6(C)CC[C@@H]54)C3)C(OC3OC(C)C(O)C(O)C3O)C2O)C(O)C(O)C1O (some centres not stated) | 5.72 | 40.3 | > 100 | > 37.9 | 6.04 | 12.7 | 6.71 | 5.69 | > 65.5 | 30.8 | 7.53 | > 29.3 | 28.9 | 23.1 | > 21.6 | 20 | 6.12 | > 26 | 4.02 | > 49.9 |
| O=C1N=NC(=O)N1c1cc(C(F)(F)F)cc(C(F)(F)F)c1 | 17 | 14.2 | 33.2 | 14.7 | 15 | 8.25 | 20.8 | 18.2 | > 32.4 | 6.55 | 9.13 | > 23 | 13.7 | 9.49 | 20.7 | 5.57 | 16.2 | 13.8 | > 45.6 | 12.2 |
| Cc1coc2c1C(=O)C(=O)c1c-2ccc2c1CCCC2(C)C | 8.62 | > 100 | > 100 | 21.7 | 12.1 | > 100 | > 31.4 | > 92.3 | 5.89 | > 100 | 3.98 | 1.47 | > 100 | 8.49 | 7.59 | 6.94 | > 100 | > 30.1 | 12.5 | 2.37 |
| C=C(C)[C@@H]1CCC2=C[C@H](OC2=O)[C@@]2(C)C[C@@H]2C(=O)/C=C(/C)C(=O)[C@H]1OC(C)=O | 30.3 | > 48.2 | > 49.8 | 43 | 97.6 | > 93.3 | 88.6 | 42 | > 37.6 | > 100 | 17.1 | > 50.8 | > 68.6 | > 100 | > 33.7 | > 80.1 | > 84.7 | > 56.9 | > 44.6 | 81.4 |
| CCOC(=O)N1CCN(c2nc(C)n(-c3ccccc3)c(=S)c2C#N)CC1 | > 100 | > 100 | > 100 | > 100 | > 100 | > 100 | > 100 | > 100 | > 100 | > 84.3 | > 66.3 | > 100 | > 100 | > 100 | > 100 | > 100 | > 100 | > 100 | > 100 | > 100 |
| CC[C@@H]1CC[C@@H]2[C@H](CC[C@]3(C)[C@@H](O)CC[C@@H]23)[C@H]1CO | > 100 | > 100 | > 100 | > 100 | > 100 | > 100 | > 100 | > 100 | > 100 | > 100 | > 100 | > 100 | > 100 | > 100 | > 100 | > 100 | > 100 | > 100 | > 100 | > 100 |
| COc1ccc2nc3cc([N+](=O)[O-])ccc3c(Nc3ccc(S(=O)(=O)N=C(N)N)cc3)c2c1 | > 100 | > 100 | > 100 | 39.3 | > 100 | 77.8 | > 100 | 57.5 | 96.4 | > 100 | 41.3 | 72.6 |  | > 100 | > 100 | 44.4 | > 100 | > 100 | > 100 | > 100 |
| Cn1c(=O)cc(N=Nc2ccc(Cl)c(Cl)c2)[nH]c1=O | 31.9 | 47.4 | 51.4 | > 100 | > 100 | 80.4 | 94 | > 100 | 59.8 | 45.3 | 49.4 | 33.2 | 53 | > 100 | > 100 | 45.2 | > 100 | > 100 | 58.9 | 65.9 |
| CC(C)[Si](OC1=C(c2ccccc2)C(NC(=O)/C=C/c2ccc([N+](=O)[O-])cc2)CCC1)(C(C)C)C(C)C (configuration not stated) | > 100 |  | > 100 | > 100 | > 100 | > 100 | > 100 | > 100 | > 100 | > 100 | > 100 | > 100 | > 100 | > 100 | > 100 | > 100 | > 100 |  | > 100 | > 100 |
| CCOC(=O)c1[nH]cc(C)c1-c1c[nH]c2ccccc12 | > 100 | > 71.4 | > 100 | > 100 | > 100 | > 74.4 | 61.7 | > 100 | > 60.8 | > 58.9 | > 81.8 | > 76.8 | > 100 | > 93 | > 100 | > 93 | > 100 | > 100 | > 100 | > 100 |
| C/C(=N/c1[nH]c(=O)cc2c1C(=O)CC2)N(C)C | > 200 | > 200 | > 200 | > 200 | > 200 | > 200 | > 200 | > 200 | > 200 | > 200 | > 200 | > 200 | > 200 | > 200 | > 200 | > 200 | > 200 | > 200 | > 200 | > 200 |
